{"source": "patent US12162888B2", "about": "“Carboxamides as ubiquitin-specific protease inhibitors” (Valo Early Discovery, Inc., priority 2018, dated 2024)"}
{"target": "T1, USP28 (USP28-5(1-1077)-TEV-6*His; LifeSensors) (Homo sapiens, UniProt Q96RU2)", "T1 construct": "construct USP28 (USP28-5(1-1077)-TEV-6*His; LifeSensors); TEV cleavage site (C); 6xHis (C); purchased LifeSensors", "T1 sequence (Q96RU2 1-1077)": "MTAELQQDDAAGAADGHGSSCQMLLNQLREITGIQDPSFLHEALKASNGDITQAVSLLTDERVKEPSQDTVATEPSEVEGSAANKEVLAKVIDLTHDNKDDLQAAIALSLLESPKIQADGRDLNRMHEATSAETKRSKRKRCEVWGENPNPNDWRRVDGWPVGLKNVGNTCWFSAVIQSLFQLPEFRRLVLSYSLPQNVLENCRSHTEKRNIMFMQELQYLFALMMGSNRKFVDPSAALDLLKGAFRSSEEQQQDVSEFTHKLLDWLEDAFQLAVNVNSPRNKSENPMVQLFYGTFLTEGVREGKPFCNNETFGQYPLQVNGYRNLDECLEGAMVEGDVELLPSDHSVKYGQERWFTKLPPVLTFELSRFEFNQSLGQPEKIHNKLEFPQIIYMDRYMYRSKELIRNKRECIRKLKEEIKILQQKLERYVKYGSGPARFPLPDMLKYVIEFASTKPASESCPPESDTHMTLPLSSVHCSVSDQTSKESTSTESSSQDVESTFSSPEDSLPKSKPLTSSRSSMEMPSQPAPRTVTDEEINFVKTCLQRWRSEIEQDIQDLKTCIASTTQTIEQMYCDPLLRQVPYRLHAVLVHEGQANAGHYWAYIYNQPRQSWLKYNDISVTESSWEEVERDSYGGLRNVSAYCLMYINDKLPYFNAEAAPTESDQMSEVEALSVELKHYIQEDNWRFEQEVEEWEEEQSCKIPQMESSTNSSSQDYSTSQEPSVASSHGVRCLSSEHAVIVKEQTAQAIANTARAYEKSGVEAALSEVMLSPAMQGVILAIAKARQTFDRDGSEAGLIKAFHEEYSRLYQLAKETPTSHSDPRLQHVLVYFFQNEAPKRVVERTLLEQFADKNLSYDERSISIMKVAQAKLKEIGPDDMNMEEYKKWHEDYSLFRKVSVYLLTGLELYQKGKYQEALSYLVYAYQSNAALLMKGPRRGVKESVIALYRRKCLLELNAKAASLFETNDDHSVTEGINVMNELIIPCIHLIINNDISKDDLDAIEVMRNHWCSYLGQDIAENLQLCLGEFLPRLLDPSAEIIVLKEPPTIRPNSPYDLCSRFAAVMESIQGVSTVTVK", "experiment": "Ubiquitin-Rhodamine 110 Assay for USP28 Activity, Example A-1(b)", "format": "biochemical", "description": "Example A-1(b): Biochemical Assay: Ubiquitin-Rhodamine 110 Assay for USP28 Activity\nEach assay was performed in a final volume of 20 μL in assay buffer containing 20 mM Tris-HCl (pH 8.0, (1M Tris-HCl, pH 8.0 solution; Corning 46-031-CM)), 2 mM CaCl2 (1M Calcium Chloride solution; Sigma #21114) 2 mM BME (2-Mercaptoethanol; Sigma 63689-25ML-F), 0.01% Prionex (0.22 μM filtered, Sigma #G-0411), and 0.01% Triton X-100. Stock compound solutions were stored at −20° C. as 10 mM in DMSO. Up to 1 month prior to the assay, 2 mM test compounds were pre-dispensed into assay plates (Black, low volume; Corning #3820) and frozen at −20° C. Prestamped assay plates were allowed to come to room temperature on the day of the assay. For the screen, 100 nL of 2 mM was pre-dispensed for a final screening concentration of 10 μM (DMSO(fc)=0.5%). […] Plates were incubated stacked for 90 minutes at room temperature before fluorescence was read on the Envision (Excitation at 485 nm and Emission at 535 nm; Perkin Elmer) or on the PheraSTAR (Excitation at 485 nm and Emission at 535 nm; BMG Labtech).\nFor follow-up studies, each assay was performed in a final volume of 15 μL in assay buffer containing 20 mM Tris-HCl (pH 8.0, (1M Tris-HCl, pH 8.0 solution; Corning 46-031-CM)), 3 mM BME (2-Mercaptoethanol; Sigma 63689-25ML-F), 0.03% BGG (0.22 μM filtered, Sigma, G7516-25G), and 0.01% Triton X-100 (Sigma, T9284-10L). Nanoliter quantities of either an 8-point or 10-point, 3-fold serial dilution in DMSO was pre-dispensed into assay plates (Perkin Elmer, ProxiPlate-384 F Plus, #) for a final test concentration of either 25 μM to 11 nM or 25 μM to 1.3 nM, respectively. Enzyme USP28, construct USP28 (USP28-5(1-1077)-TEV-6*His; LifeSensors) concentration and incubation times were optimized for the maximal signal-to-background while maintaining initial velocity conditions at a fixed substrate concentration. The final concentration of the enzyme in the assay was […]. Final substrate (Ub-Rh110; Ubiquitin-Rhodamine 110, R&D Systems #U-555) concentration was 25 nM with [Ub-Rh110]<<Km. 5 μL of 2× enzyme was added to assay plates (pre-stamped with compound) preincubated with USP28 for 30 minutes and then 5 μL of 2× Ub-Rh110 was added to assay plates. Plates were incubated stacked for 20 minutes at room temperature before 5 μL of stop solution was added (final concentration of 10 mM citric acid (Sigma, 251275-500G)). Fluorescence was read on the Envision (Excitation at 485 nm and Emission at 535 nm; Perkin Elmer) or on the PheraSTAR (Excitation at 485 nm and Emission at 535 nm; BMG Labtech).\nFor assay formats Example A-1(a), A-1(b), and A-2, data were reported as percent inhibition compared with control wells based on the following equation: % inh=1−((FLU−AveLow)/(AveHigh−AveLow)) where FLU=measured Fluorescence, AveLow=average Fluorescence of no enzyme control (n=16), and AveHighh=average Fluorescence of DMSO control (n=16). IC50 values were determined by curve fitting of the standard 4 parameter logistic fitting algorithm included in the Activity Base software package: IDBS XE Designer Model 205. Data is fitted using the Levenburg Marquardt algorithm."}
{"smiles": "Cc1nc2sc(C(=O)N[C@@H]3CCc4cc(N5CCNCC5)ccc4C3)c(N)c2s1", "note": "(single isomer, unassigned) [Example 11-34]", "USP28 A-1(b) IC50 range": "++ (“++”: 0.2-2 μM)"}
{"smiles": "Cc1ccc2c(N)c(C(=O)N[C@H]3COc4cc(N5CCNCC5)ccc4[C@H]3C)sc2n1", "note": "(single isomer, unassigned) [Example 11-15]", "USP28 A-1(b) IC50 range": "+ (“+”L>2 μM)"}
{"smiles": "CN[C@H]1CCN(c2ccc3c(c2)CC[C@@H](NC(=O)c2sc4nc(C)cnc4c2N)C3)C1", "note": "(single isomer, unassigned) [Example 11-26]", "USP28 A-1(b) IC50 range": "+ (“+”L>2 μM)"}
{"smiles": "CN[C@H]1CCN(c2ccc3c(c2)CC[C@H](NC(=O)c2sc4nc(C)cnc4c2N)C3)C1", "note": "(single isomer, unassigned) [Example 11-25]", "USP28 A-1(b) IC50 range": "++ (“++”: 0.2-2 μM)"}
{"smiles": "Cc1ccc2c(N)c(C(=O)N[C@H]3CCc4cc(N5CCNCC5)ccc4C3)sc2n1", "note": "(single isomer, unassigned) [Example 11-21]", "USP28 A-1(b) IC50 range": "++ (“++”: 0.2-2 μM)"}
{"smiles": "Cc1cnc2c(N)c(C(=O)N[C@H]3CCc4cc(N5CCNCC5)ccc4C3)sc2n1", "note": "(single isomer, unassigned) [Example 11-19]", "USP28 A-1(b) IC50 range": "++ (“++”: 0.2-2 μM)"}
{"smiles": "CN[C@@H]1CCN(c2ccc3c(c2)CC[C@@H](NC(=O)c2sc4nc(C)cnc4c2N)C3)C1", "note": "(single isomer, unassigned) [Example 11-28]", "USP28 A-1(b) IC50 range": "+ (“+”L>2 μM)"}
{"smiles": "Cc1cnc2c(N)c(C(=O)N[C@@H]3CCc4cc(N5C[C@H]6C[C@@H]5CN6)ccc4C3)sc2n1", "note": "(single isomer, unassigned) [Example 11-32]", "USP28 A-1(b) IC50 range": "++ (“++”: 0.2-2 μM)"}
{"smiles": "Cc1ccc2c(N)c(C(=O)N[C@H]3COc4cc(N5CCNCC5)ccc4[C@@H]3C)sc2n1", "note": "(single isomer, unassigned) [Example 11-17]", "USP28 A-1(b) IC50 range": "+ (“+”L>2 μM)"}
{"smiles": "Cc1cnc2c(N)c(C(=O)N[C@H]3CCc4cc(N5CCNCC5)cc(F)c4C3)sc2n1", "note": "(single isomer, unassigned) [Example 11-38]", "USP28 A-1(b) IC50 range": "+++ (“+++”: 0.05-0.2 μM)"}
{"smiles": "Cc1ccc2c(N)c(C(=O)N[C@@H]3CCc4cc(N5CC6CNCC(C5)O6)cc(F)c4C3)sc2n1", "note": "(single isomer, unassigned) [Example 11-40]", "USP28 A-1(b) IC50 range": "++++ (“++++”: 0.001-0.05 μM)"}
{"smiles": "Cc1ccc2c(N)c(C(=O)N[C@@H]3CCc4c(C#N)c(N5CCNCC5)cc(F)c4C3)sc2n1", "note": "(single isomer, unassigned) [Example 14-9]", "USP28 A-1(b) IC50 range": "+ (“+”L>2 μM)"}
{"smiles": "Cc1cnc2c(N)c(C(=O)N[C@H]3CCc4c(ccc(N5CCNCC5)c4F)C3)sc2n1", "note": "(single isomer, unassigned) [Example 21-10]", "USP28 A-1(b) IC50 range": "+ (“+”L>2 μM)"}
{"smiles": "Cc1ccc2c(N)c(C(=O)N[C@@H]3COc4cc(N5CCNCC5)ccc4[C@@H]3C)sc2n1", "note": "(single isomer, unassigned) [Example 11-18]", "USP28 A-1(b) IC50 range": "+ (“+”L>2 μM)"}
{"smiles": "Cc1cnc2c(N)c(C(=O)N[C@H]3CCc4cc(N5C[C@@H]6C[C@H]5CN6)ccc4C3)sc2n1", "note": "(single isomer, unassigned) [Example 11-29]", "USP28 A-1(b) IC50 range": "++ (“++”: 0.2-2 μM)"}
{"smiles": "Cc1cnc2c(N)c(C(=O)N[C@@H]3CCc4cc(N5CCNCC5)cc(F)c4C3)sc2n1", "note": "(single isomer, unassigned) [Example 11-37]", "USP28 A-1(b) IC50 range": "+ (“+”L>2 μM)"}
{"smiles": "Cc1ccc2c(N)c(C(=O)N[C@H]3COc4cc(N5CCNCC5)ccc4[C@@H]3C)sc2n1", "note": "(single isomer, unassigned) [Example 11-16]", "USP28 A-1(b) IC50 range": "+ (“+”L>2 μM)"}
{"smiles": "Cc1cnc2c(N)c(C(=O)N[C@H]3CCc4cc(N5C[C@H]6C[C@@H]5CN6)ccc4C3)sc2n1", "note": "(single isomer, unassigned) [Example 11-31]", "USP28 A-1(b) IC50 range": "++ (“++”: 0.2-2 μM)"}
{"smiles": "Cc1cnc2c(N)c(C(=O)N[C@@H]3CCc4cc(N5CCNCC5)ccc4C3)sc2n1", "note": "(single isomer, unassigned) [Example 11-20]", "USP28 A-1(b) IC50 range": "+ (“+”L>2 μM)"}
{"smiles": "Cc1cnc2c(N)c(C(=O)N[C@@H]3CCc4c(ccc(N5CCNCC5)c4F)C3)sc2n1", "note": "(single isomer, unassigned) [Example 21-9]", "USP28 A-1(b) IC50 range": "++ (“++”: 0.2-2 μM)"}
{"smiles": "Cc1ccc2c(N)c(C(=O)N[C@@H]3CCc4cc(N5CCNCC5)ccc4C3)sc2n1", "note": "(single isomer, unassigned) [Example 11-22]", "USP28 A-1(b) IC50 range": "++ (“++”: 0.2-2 μM)"}
{"smiles": "Cc1cnc2c(N)c(C(=O)N[C@H]3CCc4cc(N5CCNCC5)c(F)cc4C3)sc2n1", "note": "(single isomer, unassigned) [Example 21-12]", "USP28 A-1(b) IC50 range": "++++ (“++++”: 0.001-0.05 μM)"}
{"smiles": "Cc1cnc2c(N)c(C(=O)N[C@@H]3CCc4cc(N5CCNCC5)c(F)cc4C3)sc2n1", "note": "(single isomer, unassigned) [Example 21-11]", "USP28 A-1(b) IC50 range": "++ (“++”: 0.2-2 μM)"}
{"smiles": "Cc1ccc2c(N)c(C(=O)N[C@H]3CCc4c(C#N)c(N5CCNCC5)cc(F)c4C3)sc2n1", "note": "(single isomer, unassigned) [Example 14-10]", "USP28 A-1(b) IC50 range": "+++ (“+++”: 0.05-0.2 μM)"}
{"smiles": "Cc1ccc2c(N)c(C(=O)N[C@H]3CCc4cc(N5CC6CNCC(C5)O6)cc(F)c4C3)sc2n1", "note": "(single isomer, unassigned) [Example 11-39]", "USP28 A-1(b) IC50 range": "++ (“++”: 0.2-2 μM)"}
{"smiles": "CN[C@@H]1CCN(c2ccc3c(c2)CC[C@H](NC(=O)c2sc4nc(C)cnc4c2N)C3)C1", "note": "(single isomer, unassigned) [Example 11-27]", "USP28 A-1(b) IC50 range": "++ (“++”: 0.2-2 μM)"}
{"smiles": "Cc1cnc2c(N)c(C(=O)N[C@@H]3CCc4cc(N5C[C@@H]6C[C@H]5CN6)ccc4C3)sc2n1", "note": "(single isomer, unassigned) [Example 11-30]", "USP28 A-1(b) IC50 range": "++ (“++”: 0.2-2 μM)"}
{"smiles": "Cc1nc2sc(C(=O)N[C@H]3CCc4cc(N5CCNCC5)ccc4C3)c(N)c2s1", "note": "(single isomer, unassigned) [Example 11-33]", "USP28 A-1(b) IC50 range": "+ (“+”L>2 μM)"}
